Patent publication US12427192B2, “Water soluble adjuvant and composition containing same” (Sumitomo Pharma Co., Ltd., priority 2019, dated 2025)

Tests used:
[1] = test system: HLA-A*02:01 transgenic mouse; assay: Test 16: in vivo adjuvant activity, cocktail vaccine k (liposome formulation 1), IFNγ ELISPOT; conditions: added to cocktail vaccine k (liposome formulation 1); 0.4 nmol per body, twice; FIG. 19
Procedure: (§1) Evaluation of In Vivo Adjuvant Activity in HLA-A*02:01 Transgenic Mouse
The in vivo adjuvant activity of the compound of Example 1 was evaluated in the following procedure. To a vaccine (liposome formulation 1) comprising Compound of formula 4 prepared in Reference example 8 and Peptide SEQ ID No. 3 prepared in Reference example 3 (hereinafter, referred to as “cocktail vaccine k”) was added the compound prepared in Example 1 to prepare a vaccine. The vaccine was administered to a HLA-A*02:01 transgenic mouse, and the adjuvant activity of the vaccine was evaluated by the method of testing antigen-specific CTL induction.
For example, the above liposome formulation 1 was prepared as follows. 47.1 mg of hydrogenated soybean phosphatidylcholine and 15.47 mg of cholesterol were dissolved in t-butyl alcohol, and the mixture was lyophilized. […]
Cocktail vaccine k was injected to mice intradermally at the tail base area in an amount for administering 500 μg of Compound of formula 4 per body and 375 μg of Peptide SEQ ID No. 3 per body. […] Then, after removal of the supernatant from the wells, stained spots on the ELISPOT plate were counted.

[2] = test system: HLA-A*02:01 transgenic mouse; assay: Test 9: in vivo adjuvant activity, cocktail vaccine b, IFNγ ELISPOT; conditions: added to cocktail vaccine b; Peptide SEQ ID No. 1 or SEQ ID No. 4; 0.4 nmol per body, twice; FIG. 6 and 7
Procedure: as §1
The in vivo adjuvant activity of the compounds prepared in Examples 8, 9, and 10 and the compound prepared in Reference example 12 was evaluated in the following procedure. To cocktail vaccine b comprising Compound of formula 4 prepared in Reference example 8 and Peptide SEQ ID No. 3 prepared in Reference example 3 with Montanide ISA51 VG was added the compound prepared in Example 8, 9, or 10, or the compound prepared in Reference example 12 to prepare each vaccine. The vaccine was administered to a HLA-A*02:01 transgenic mouse, and the adjuvant activity of each vaccine was evaluated by the method of testing antigen-specific CTL induction.
Specifically, Compound of formula 4 and Peptide SEQ ID No. 3 were dissolved in DMSO, and then diluted with water for injection to concentrations of Compound of formula 4 of 3 mg/mL and Peptide SEQ ID No. 3 of 2.25 mg/mL. The diluted peptide solution was mixed and emulsified with an equal volume of Montanide ISA 51 VG to prepare cocktail vaccine b. Cocktail vaccine b was injected to mice intradermally at the tail base area in an amount for administering 300 μg of Compound of formula 4 per body and 225 μg of Peptide SEQ ID No. 3 per body. Or, in the step of preparing cocktail vaccine b, the compound prepared in Example 8, 9, or 10, or the compound prepared in Reference example 12 was added to the diluted peptide solution to prepare a vaccine, and the prepared vaccine was injected to mice intradermally at the tail base area in an amount for administering 300 μg of Compound of formula 4 per body, 225 μg of Peptide SEQ ID No. 3 per body, and 0.4 nmol of the compound prepared in Example 8, 9, or 10, or the compound prepared in Reference example 12 per body. The administrations were done twice, which had one week interval. One week after the final administration, the mice were sacrificed with CO2 gas. Splenocytes were harvested from spleens removed from the mice. Like Test 4, Peptide (SEQ ID No. 1 or SEQ ID No. 4) was added to the splenocyte-containing ELISPOT plate at a final concentration of 10 μg/ml, and the plate was incubated overnight at 37° C. under an atmosphere of 5% CO2 to re-stimulate the peptide in vitro. Then, after removal of the supernatant from the wells, stained spots on the ELISPOT plate were counted.

Compound	CTL counts responsive to Peptide SEQ ID No. 1 compared with adding no compound [1]	CTL counts responsive to the peptide compared with adding no compound [2]
CCCCCNc1nc(N)nc(C)c1Cc1ccc(CN(C)CCOCCOCCOCCOCCO)cc1OC [Example 1, 1-(4-{[2-amino-4-methyl-6-(pentylamino)pyrimidin-5-yl]methyl}-3-methoxyphenyl)-2-methyl-5,8,11,14-tetraoxa-2-azahexadecan-16-ol·trifluoroacetate]	more	–
CCCCCNc1nc(N)nc(C)c1Cc1ccc(CNC)cc1OC [Reference example 12, 5-({2-methoxy-4-[(methylamino)methyl]phenyl}methyl)-6-methyl-N^4-pentylpyrimidine-2,4-diamine, reference compound]	–	more
